Experimental data from patent publication US20020002172A1, “PHARMACEUTICAL FORMULATIONS” (priority 1998, published 2002).
Where a name gives a salt, the structure may show the parent alone.

Assays:
[1] = solubility of sildenafil forms in water; type: physicochemical
[2] = solubility in saliva; type: physicochemical

CCCc1nn(C)c2c(=O)[nH]c(-c3cc(S(=O)(=O)N4CCN(C)CC4)ccc3OCC)nc12 [sildenafil citrate]
solubility of salt form ([1]; medium not stated): highly soluble

CCCc1nn(C)c2c(=O)[nH]c(-c3cc(S(=O)(=O)N4CCN(C)CC4)ccc3OCC)nc12 [sildenafil free base, 5-[2-ethoxy-5-(4-methylpiperazin-1-ylsulphonyl)-phenyl] -1,6-dihydro-1-methyl-3-propylpyrazolo [4,3-d]pyrimidin-7-one]
solubility in water ([1]; water): extremely low solubility
solubility in saliva [2]: extremely low solubility
